“Also recorded” adds a separate entry of the source.
What was measured:
[1] = system: hCMEC/D3 endothelial cells; assay: Endothelial spreading and cell coverage in peptide-lined DLP-printed channels; assay type: cell-based; settings: for Cell spreading and vessel coverage over time: 650 μm channels in photoink formulation no. 1, 5-day static culture, images on days 1, 3, 5; for Percent cell coverage within the vessel versus control / other motifs: 650 μm channels in photoink formulation no. 1, static culture, day 5, peptide clicked to channel wall; for Microenvironment for vessel coverage and development of barrier function: overall statement covering coverage and ZO-1 results in hCMEC/D3 endothelial cells
Description: Radicalized driven thiol-ene reaction schemes were utilized for functionalizing biomaterials. Several thiolated peptide cell binding motifs were functionalized to the walls of the printed geometry. Fluorescent labeled peptides were first synthesized via peptide synthesizer. […] Lyophilized RFP and GFP were both brought to room temperature and diluted to 10 mg/mL in 1×PBS. The bifurcation geometry print included RFP peptide in the bulk solution at 1:1000, while 300 μL of GFP was flowed into the channel at 10 μg/mL and hit with […] for 180 seconds. Process was repeated in the same manner for channel functionalization of the ‘RU’ geometry. Similarly, HAVDI(HAVDIGGGC), derived from N-Cadherein and RGD(GCGYGRGDSPG), derived from multiple ECM proteins, were synthesized and purchased from Genscript. IKVAV(GCGGGIKVAVG), a laminin derived motif, was fabricated using a peptide synthesizer. 5 mg/mL Irgacure 12959 was diluted to 0.5 mg/mL in PBS and thiolated peptide was added to a final concentration of 5 mM. 50 μL of peptide solution was injected into the channel and 10 mW/cm^2 was radiated onto surface of gel for 60 seconds. This process was repeated after inverting the gel to assure full coverage of the peptide onto the surface of the channel. Gels were then washed out 2× for 30 minutes in PBS to remove any unbound peptide.
(§1) P23 hCMEC/D3 endothelial cells (with and without transfection with RFP-LifeAct) were cultured until 90% confluent, trypsinized, and suspended at a concentration of 50M/mL for hydrogel cell seeding. Hydrogels were seeded with 22 μL of 12.5 M/mL and placed face up at the bottom of six well plate with 1 mL of EGM-2 incubated at 37° C./5% CO2. The cell seeding technique included 90° rotations every 30 minutes with additional seeding every hour for 4 hours. Following initial seeding, 8.8 μL of 12.5 M/mL HCMEC/D3 were injected into the bifurcation geometry for vessel coating. After 4 hours, hydrogels were kept in static culture for 4-5 days in EGM-2.
(§2) In order to quantify cell spreading, a z-projection was used with an arbitrary ROI to quantify the percentage of the area covered by cells. Three different ROI's were analyzed to provide an average and standard deviation. ZO-1 intensity was quantified in both static and perfused culture at different locations within the branched network. The image intensity along approximately 70-μm lines across the image plane were plotted to quantify ZO-1 localization to cell-cell junctions. […] ImageJ was used for all image processing and analysis.
Imaging was performed on a Nikon Eclipse Ti Confocal Microscope to assess cell spreading, morphology, and proliferation in 3D overtime within these microvessels. Images were taken on days 1, 3, and 5 following cell seeding.
(§3) A two-factor ANOVA was calculated to test for significance in the two variables of time and peptide coating in the cell spreading assay. In order to test for significance in the ZO-1 localization experiments, a one-factor ANOVA was calculated for each peptide condition tested.

[2] = system: ZO-1 localization in hCMEC/D3 cells; assay: ZO-1 localization to cell-cell junctions (tight junction integrity) in peptide-lined vessels; assay type: cell-based; settings: for ZO-1 staining localization to cell-cell junctions (images): photoink formulation no. 1, static conditions for five days; for Root mean square ZO-1 intensity quantification (barrier formation): photoink formulation no. 1, static culture day 5, p<0.05
Description: as §1
Vessels cultured in static conditions for four days were hooked up to pressure driven flow using an Arduino-controlled peristaltic pump. Gels were ported inside a perfusion chamber with 20-gauge PTFE catheter tips connected to luer locks with tygon tubing (McMaster Carr). Vessels were connected in parallel through a dampener with EGM-2 for 24 hours at a flow rate of ˜5 mL/min or 44.4 dyne/cm^2 shear stress in the branches and 1.68 dyne/cm^2 in the region adjacent to the bifurcation.
Following static and/or flow culture within the vessels, hydrogels were washed 3× in PBS and placed in 4% paraformaldehyde for 20 minutes. Gels were washed in PBS and a primary monoclonal antibody for zonula-occluden-1 (ZO-1) (Cell Signaling Technologies) was added at 1:250 in PBS and incubated at 4° C. for 48 hours. Gels were then washed for 10 minutes 3× in PBS on the rocker. Far red-labeled ZO-1 secondary antibody (Cell Signaling Technologies) was diluted 1:250 in PBS along with Hoesch at 2 ug/ml. Solution was added to the gels and incubated for 1 hour at 37° C. Gels were then washed and imaged on a Nikon Eclipse Ti Confocal microscope.
as §2, §3

Sequence	Cell spreading and vessel coverage over time [1]	Endothelial coverage of the branched (bifurcation) topology ([1]; bifurcation vessel, endothelial cells only, before seeding astrocytes)	ZO-1 localization in response to flow ([2]; network topology designed to induce flow separation, fully developed versus disturbed flow)	ZO-1 staining localization to cell-cell junctions (images) [2]	Percent cell coverage within the vessel versus control / other motifs [1]	Microenvironment for vessel coverage and development of barrier function [1]	Root mean square ZO-1 intensity quantification (barrier formation) [2]
GCGYGRGDSPG [thiolated peptide motif derived from multiple ECM proteins, clicked to channel walls or in the bulk photoink]	exhibited immediate spreading on PEG-norbornene and progressed linearly overtime; also recorded: increased cell spreading	full channel coverage was possible	no significant difference in ZO-1 localization in response to fully developed and disturbed flow	the ZO-1 was the most diffuse in this condition; also recorded: did not result in the highest ZO-1 localization to cell-cell junctions	–	–	–
HAVDIGGGC	over the course of the experiment cells began to spread and cover the walls; also recorded: took several days to spread and cover the vessel wall	–	–	increase zonula occulends-1 (“ZO-1”) localization to cell-cell junctions; also recorded: ZO-1 junctional staining was the clearest; also recorded: induced the highest ZO-1 localization to the cell-cell junctions	significantly improve endothelialization compared to other motifs; also recorded: significantly higher coverage than the control condition	provide the most favorable microenvironment for both vessel coverage and development of barrier function	significantly higher barrier formation than the RGD and control-lined channels
GCGGGIKVAVG [thiolated laminin derived motif, covalently clicked to channel walls]	exhibited no noticeable difference in vessel coverage throughout the 5-day static culture	–	–	increase zonula occulends-1 (“ZO-1”) localization to cell-cell junctions; also recorded: exhibited more ZO-1 localization to the cell-cell junctions	significantly improve endothelialization compared to other motifs; also recorded: significantly higher coverage than the control condition	provide the most favorable microenvironment for both vessel coverage and development of barrier function	significantly higher barrier formation than the RGD and control-lined channels

— patent US20240117305A1, “THREE-DIMENSIONAL PRINTABLE BIOCOMPATIBLE PHOTOPOLYMERIZABLE INK WITH SPATIALLY CONTROLLED DUAL PROTEIN MOTIFS FOR CO-CULTURE FUNCTIONALITY” (Rowan University, priority 2022, published 2024)
